For one assay, the system named is C6 glioma tumor. Nature of the assay: Anti-tumor effect in C6 glioma-bearing rats, tumor volume and appearance (Example 28). Format: in vivo, Sprague Dawley (SD) rats. On the procedure:
The anti-tumor effect of DP-BFA was evaluated by monitoring tumor volume and appearance in a model system of C6 glioma-bearing rats. Sprague Dawley (SD) rats were inoculated with 2.5×10^5 C6 glioma cells in 5 μl PBS as follows. Rats were mounted into a stereotactic head holder in a flat-skull position. After reflections of the periosteum, a burr hole was preformed with a 1 mm drill in the following coordinates: bregma—1.0, 3.50 mm lateral from the midline on the left side, and at a depth of 3.50 mm. The cell suspension was manually injected at a depth of 3.50 mm using a 10 μl Hamilton syringe.
The pterigo-palatina artery was legated, and the common carotid artery was clamped at the time of infusion.
Five days after the inoculation of the C6 tumor cells, the rats were anesthetized with Ketamin/xylazin (1:1) 0.1 ml/100 grams body weight, perfused with saline and fixed with 4% Formaldehyde solution. Brains were removed and cryoprotected in a sucrose solution for 48 h. The brains were then sliced in coronal section, stained with Haematoxylin-Eosine and underwent pathology evaluation.

For assay [1], the system named is DNA fragmentation in Neuro2a neuroblastoma cells. Nature of the assay: DNA fragmentation in Neuro2a cells (Cell Death Detection Elisa). The format is cell-based, mouse. The note with it: for DNA fragmentation (OD405 nm): 24 hours, Neuro2a (control 0.030). The method, then: In order to further explore the possible mechanism underlying the cytotoxic effect exerted by the various DP-BFAs, two established markers for apoptosis, caspase-3 activity and DNA fragmentation (Lincz (1998) Immunol. Cell Biol. 76: 1–19), were studied.
Neuro2a neuroblastoma cells (ATCC, CCL-131) were seeded in MEM containing 2 mM L-glutamine, 100 units/ml penicillin, 100 ug/ml streptomycin and 10% FCS at 37° C. 24 hours later, when cells were in logarithmic growth phase, 3,12-DEG-PC was added to a final concentration of 25 μM, 50 μM or 100 μM. Cells grown in the presence of vehicle only served as control group.
Assays for caspase-3 activity and DNA-fragmentation were performed on cell lysates obtained following, respectively, 6 and 24 hours incubation with the drug. Caspase-3 activity was assayed using the fluorogenic substrate Ac-DEVD-AMC (Pharmingen, Becton Dickinson, cat. no. 66081U) and following the manufacture's instructions. DNA-fragmentation was quantified by using the Cell Death Detection Elisa plus kit (Roche, cat. no. 1774 425) and following the manufacture's instructions.
The measured caspase activity is expressed as percentage of the activity in the control plates normalized to protein content. DNA-fragmentation is expressed as OD values at λ=405 nm and is an average of readings from duplicate cell culture lysates.

Take “2-(4′-Hexadecanoyloxy)ethoxyethyl phosphate [3,12-DEG-PO4]”: in the assay with C6 glioma tumor (rat, in vivo), the “anti-tumor effect, invasiveness and rate of growth (in words)” value was “significant anti-tumor effect”. This molecule also had a Tumor volume in the assay on C6 glioma tumor (single dose 5 to 20 μM, 72 h post inoculation, vehicle 8.1±2.2) of 1.6±0.2 mm^3.

Take `CCCCCCCCCCCCC(CCC)C(=O)OCCOCCOP(=O)([O-])OCC[N+](C)(C)C` (stereo not drawn) [3,12-DEG-PC, 2-(2′-Propyltetradecanoyloxy)ethoxyethylphosphocholine]: the “DNA fragmentation (OD405 nm)” value in assay [1] (25 μM) was found to be 0.036 OD405 nm; in assay [1] (50 μM), 0.153 OD405 nm; in assay [1] (100 μM), 0.389 OD405 nm. For the same molecule, in assay [1] (Neuro2a cells), the “DNA fragmentation (in words)” value was “significant increase in DNA fragmentation”.

The values are drawn from patent US7186703B2, “Derivatives of branched-chain lipophilic molecules and uses thereof” (D-Pharm Ltd., priority 2000, dated 2007).
